Patent US20060252807A1, “Novel ortho-terphenyl inhibitors of p38 kinase and methods of treating inflammatory disorders” (Kalypsys, Inc., priority 2005, published 2006)

Target: T1, active p38 alpha enzyme (Upstate Biotechnology) (Homo sapiens, UniProt Q16539)
T1 construct: purchased Upstate Biotechnology
Assay: p38α biochemical assay (ATP turnover, luminescent detection, Cambrex PKlight)
Conditions: p38α kinase; Table 1 Biological Activity
Summary of the method: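 In this kinase reaction, p38α used MapkapK2 as phosphorylation substrate at low ATP (1.4 uM final) over 2 hours at 30C, and activity was followed as ATP turnover by luminescence.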

T1 sequence (Q16539 whole entry): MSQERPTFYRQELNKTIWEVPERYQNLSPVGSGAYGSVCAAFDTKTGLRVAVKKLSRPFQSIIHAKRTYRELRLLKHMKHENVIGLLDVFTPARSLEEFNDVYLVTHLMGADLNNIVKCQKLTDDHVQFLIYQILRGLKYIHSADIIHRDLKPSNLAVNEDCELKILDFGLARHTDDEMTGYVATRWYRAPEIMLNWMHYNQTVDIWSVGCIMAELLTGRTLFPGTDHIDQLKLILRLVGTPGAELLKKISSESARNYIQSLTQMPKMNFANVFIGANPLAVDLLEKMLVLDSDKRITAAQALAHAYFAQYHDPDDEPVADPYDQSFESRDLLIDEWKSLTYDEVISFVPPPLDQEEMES

Row | SMILES | IC50 [nM]
1 | CC(C)NC(=O)c1csc(-c2oc(CNCCC#N)nc2-c2ccc(F)cc2)n1 [Example 1058] | > 1000
2 | CC(C)NC(=O)c1csc(-c2oc(CNC3CCC3)nc2-c2ccc(F)cc2)n1 [Example 1059] | > 1000
3 | CC(C)NC(=O)c1csc(-c2oc(CNCC3CC3)nc2-c2ccc(F)cc2)n1 [Example 1060] | > 1000
4 | CC(C)NC(=O)c1csc(-c2oc(CNCCCO)nc2-c2ccc(F)cc2)n1 [Example 1063] | > 1000
5 | COCCNCc1nc(-c2ccc(F)cc2)c(-c2nc(C(=O)NC(C)C)cs2)o1 [Example 1065] | ≤ 1000
6 | CC(C)NC(=O)c1csc(-c2oc(CNC3CCCC3)nc2-c2ccc(F)cc2)n1 [Example 1066] | > 1000
7 | CC(C)NC(=O)c1csc(-c2oc(CNCCCCO)nc2-c2ccc(F)cc2)n1 [Example 1075] | > 1000
8 | CC(C)NC(=O)c1csc(-c2oc(CNCc3ccco3)nc2-c2ccc(F)cc2)n1 [Example 1076] | > 1000
9 | CC(C)NC(=O)c1csc(-c2oc(CNC3CCCCC3)nc2-c2ccc(F)cc2)n1 [Example 1077] | > 1000
10 | CC(C)NC(=O)c1csc(-c2oc(CNCC3CCCO3)nc2-c2ccc(F)cc2)n1 (stereo not shown) [Example 1078] | > 1000
11 | CC(C)NC(=O)c1csc(-c2oc(CNC3CONC3=O)nc2-c2ccc(F)cc2)n1 (stereo not shown) [Example 1081] | > 1000
12 | CC(C)NC(=O)c1csc(-c2oc(CNN3CCOCC3)nc2-c2ccc(F)cc2)n1 [Example 1082] | > 1000
13 | CC(C)NC(=O)c1csc(-c2oc(CNCc3ccccc3)nc2-c2ccc(F)cc2)n1 [Example 1084] | > 1000
14 | CC(C)NC(=O)c1csc(-c2oc(CNCc3cccnc3)nc2-c2ccc(F)cc2)n1 [Example 1085] | > 1000
15 | CC(C)NC(=O)c1csc(-c2oc(CNCc3ccccn3)nc2-c2ccc(F)cc2)n1 [Example 1086] | ≤ 1000
16 | CC(C)NC(=O)c1csc(-c2oc(CNCc3ccncc3)nc2-c2ccc(F)cc2)n1 [Example 1087] | > 1000
17 | CC(C)NC(=O)c1csc(-c2oc(CNCc3cccs3)nc2-c2ccc(F)cc2)n1 [Example 1088] | > 1000
18 | CC1CCC(NCc2nc(-c3ccc(F)cc3)c(-c3nc(C(=O)NC(C)C)cs3)o2)CC1 (stereo not shown) [Example 1089] | > 1000
19 | CC(C)NC(=O)c1csc(-c2oc(CNCC3CCCCC3)nc2-c2ccc(F)cc2)n1 [Example 1090] | > 1000

Row | SMILES | IC50 [nM]
20 | CC(C)NC(=O)c1csc(-c2oc(CNC3CCCCCC3)nc2-c2ccc(F)cc2)n1 [Example 1091] | > 1000
21 | CC(C)NC(=O)c1csc(-c2oc(CNC3CCCCC3C)nc2-c2ccc(F)cc2)n1 (stereo not shown) [Example 1092] | > 1000
22 | CC(C)NC(=O)c1csc(-c2oc(CNCCN3CCCC3)nc2-c2ccc(F)cc2)n1 [Example 1093] | > 1000
23 | CC(C)NC(=O)c1csc(-c2oc(CNN3CCN(C)CC3)nc2-c2ccc(F)cc2)n1 [Example 1094] | > 1000
24 | CCN(CC)CCNCc1nc(-c2ccc(F)cc2)c(-c2nc(C(=O)NC(C)C)cs2)o1 [Example 1095] | > 1000
25 | Cc1cccc(CNCc2nc(-c3ccc(F)cc3)c(-c3nc(C(=O)NC(C)C)cs3)o2)c1 [Example 1096] | > 1000
26 | CC(C)NC(=O)c1csc(-c2oc(CN[C@@H](C)c3ccccc3)nc2-c2ccc(F)cc2)n1 [Example 1097] | > 1000
27 | CC(C)NC(=O)c1csc(-c2oc(CN[C@H](C)c3ccccc3)nc2-c2ccc(F)cc2)n1 [Example 1098] | > 1000
28 | CC(C)NC(=O)c1csc(-c2oc(CNCCc3ccccc3)nc2-c2ccc(F)cc2)n1 [Example 1099] | > 1000
29 | Cc1ccccc1CNCc1nc(-c2ccc(F)cc2)c(-c2nc(C(=O)NC(C)C)cs2)o1 [Example 1100] | > 1000
30 | Cc1ccc(CNCc2nc(-c3ccc(F)cc3)c(-c3nc(C(=O)NC(C)C)cs3)o2)cc1 [Example 1101] | > 1000
31 | Cc1cnc(CNCc2nc(-c3ccc(F)cc3)c(-c3nc(C(=O)NC(C)C)cs3)o2)cn1 [Example 1102] | > 1000
32 | CC(C)NC(=O)c1csc(-c2oc(CNCc3cccc(F)c3)nc2-c2ccc(F)cc2)n1 [Example 1103] | > 1000
33 | CC(C)NC(=O)c1csc(-c2oc(CNCc3ccc(F)cc3)nc2-c2ccc(F)cc2)n1 [Example 1104] | > 1000
34 | CC(C)NC(=O)c1csc(-c2oc(CNCc3ccccc3F)nc2-c2ccc(F)cc2)n1 [Example 1105] | > 1000
35 | CC(C)NC(=O)c1csc(-c2oc(CNCCCn3ccnc3)nc2-c2ccc(F)cc2)n1 [Example 1106] | > 1000
36 | CC(C)NC(=O)c1csc(-c2oc(CNCCC3CCCN3C)nc2-c2ccc(F)cc2)n1 (stereo not shown) [Example 1107] | > 1000
37 | CC(C)NC(=O)c1csc(-c2oc(CNCCN3CCCCC3)nc2-c2ccc(F)cc2)n1 [Example 1108] | > 1000
38 | CC(C)NC(=O)c1csc(-c2oc(CNCCN3CCOCC3)nc2-c2ccc(F)cc2)n1 [Example 1110] | > 1000

Second part, the compound after the results:

Row | IC50 [nM] | SMILES
39 | > 1000 | CC(C)NCc1nc(-c2ccc(F)cc2)c(-c2nc(C(=O)NC(C)C)cs2)o1 [Example 1054]
40 | > 1000 | CCCNCc1nc(-c2ccc(F)cc2)c(-c2nc(C(=O)NC(C)C)cs2)o1 [Example 1055]
41 | > 1000 | CC(C)NC(=O)c1csc(-c2oc(CNCCN)nc2-c2ccc(F)cc2)n1 [Example 1056]
42 | > 1000 | CC(C)NC(=O)c1csc(-c2oc(CNCCO)nc2-c2ccc(F)cc2)n1 [Example 1057]
43 | > 1000 | CCC(C)NCc1nc(-c2ccc(F)cc2)c(-c2nc(C(=O)NC(C)C)cs2)o1 (stereo not shown) [Example 1061]
44 | > 1000 | CC(C)CNCc1nc(-c2ccc(F)cc2)c(-c2nc(C(=O)NC(C)C)cs2)o1 [Example 1062]
45 | ≤ 1000 | CC(C)NC(=O)c1csc(-c2oc(CNC(C)CO)nc2-c2ccc(F)cc2)n1 (stereo not shown) [Example 1064]
46 | > 1000 | CCCC(C)NCc1nc(-c2ccc(F)cc2)c(-c2nc(C(=O)NC(C)C)cs2)o1 (stereo not shown) [Example 1067]
47 | > 1000 | CCC(C)CNCc1nc(-c2ccc(F)cc2)c(-c2nc(C(=O)NC(C)C)cs2)o1 (stereo not shown) [Example 1068]
48 | ≤ 1000 | CC(C)NC(=O)c1csc(-c2oc(CNC(C)C(C)C)nc2-c2ccc(F)cc2)n1 (stereo not shown) [Example 1069]
49 | > 1000 | CC(C)CCNCc1nc(-c2ccc(F)cc2)c(-c2nc(C(=O)NC(C)C)cs2)o1 [Example 1070]
50 | > 1000 | CC(C)NC(=O)c1csc(-c2oc(CNCCN(C)C)nc2-c2ccc(F)cc2)n1 [Example 1071]
51 | > 1000 | COCC(C)NCc1nc(-c2ccc(F)cc2)c(-c2nc(C(=O)NC(C)C)cs2)o1 (stereo not shown) [Example 1072]
52 | > 1000 | CCC(CO)NCc1nc(-c2ccc(F)cc2)c(-c2nc(C(=O)NC(C)C)cs2)o1 (stereo not shown) [Example 1073]
53 | ≤ 1000 | CCC(CO)NCc1nc(-c2ccc(F)cc2)c(-c2nc(C(=O)NC(C)C)cs2)o1 (stereo not shown) [Example 1074]
54 | ≤ 1000 | CC(C)NC(=O)c1csc(-c2oc(CNCCC(C)(C)C)nc2-c2ccc(F)cc2)n1 [Example 1079]
55 | > 1000 | CC(C)CC(C)NCc1nc(-c2ccc(F)cc2)c(-c2nc(C(=O)NC(C)C)cs2)o1 (stereo not shown) [Example 1080]
56 | > 1000 | CC(C)NC(=O)c1csc(-c2oc(CNC(CO)C(C)C)nc2-c2ccc(F)cc2)n1 (stereo not shown) [Example 1083]
57 | > 1000 | CC(C)CCCC(C)NCc1nc(-c2ccc(F)cc2)c(-c2nc(C(=O)NC(C)C)cs2)o1 (stereo not shown) [Example 1109]
58 | > 1000 | CCOC(=O)CC(C)NCc1nc(-c2ccc(F)cc2)c(-c2nc(C(=O)NC(C)C)cs2)o1 (stereo not shown) [Example 1111]
